The source of these data is US5696245A, “Fructofuranosyl substituted polymers and methods for their production” (The University of Montana, priority 1995, dated 1997).

≈ marks a conversion by molar mass, not a printed value.

A short description of data set [1]: Solubility of Estriol in water in presence of CD's and Fru-CD's. It counts as physicochemical. The procedure:
(§1) The solubilities of 2 and 4 were determined as were their respective abilities to solubilize a slightly soluble drug.
Solubility of Estriol in Water in
Presence of CD's and Fru-CD's at 20° C.
Solubility in 1.5 × 10^-2 M CD

Data set [2] is described as follows: Solubility in water of CD's and Fru-CD's. It counts as physicochemical. The settings on record: 21° C. ± 1° C. The procedure:
as §1
^a determined at 21° C. ± 1° C.

Data set [3] deals with invertase. Briefly: Hydrolysis by invertase. It counts as biochemical. As to conditions: conditions of complete sucrose hydrolysis in 30 minutes. From the text:
(§2) No inhibition was manifested by the parent CD's. […] Furthermore, provided that the Fru-α-CD is capable of transport to regions of plants or of plant cells, where invertase action occurs, then it is a potent plant growth regulator.

In data set [4] the test system is invertase. Nature of the data set: Inhibition of invertase (hydrolysis of sucrose). It counts as biochemical. The settings on record: for inhibition of invertase: 1:1 mole ratio with sucrose.
From the text: Reference is now made to the drawings accompanying the application wherein the sole Figure is a graph showing the action of invertase on sucrose in the presence of cyclodextrins and fructosyl cyclodextrins.
as §2

A word on the solubility: it is the dissolved amount per volume that the medium holds. Regarding `C[C@]12CC[C@@H]3c4ccc(O)cc4CC[C@H]3[C@@H]1C[C@@H](O)[C@@H]2O` [Estriol, reference compound], in data set [1] (water without CD, 20° C.), the solubility was determined as 0.023 mg/mL.

Regarding `OC[C@H]1O[C@@](CO)(OC[C@H]2O[C@@H]3O[C@H]4[C@H](O)[C@@H](O)[C@@H](O[C@H]5[C@H](O)[C@@H](O)[C@@H](O[C@H]6[C@H](O)[C@@H](O)[C@@H](O[C@H]7[C@H](O)[C@@H](O)[C@@H](O[C@H]8[C@H](O)[C@@H](O)[C@@H](O[C@H]9[C@H](O)[C@@H](O)[C@@H](O[C@H]2[C@H](O)[C@H]3O)O[C@@H]9CO)O[C@@H]8CO)O[C@@H]7CO)O[C@@H]6CO)O[C@@H]5CO)O[C@@H]4CO)[C@@H](O)[C@@H]1O` [compound 2, 6-O-(β-D-fructofuranosyl) cycloheptaamylose], the Solubility in water in data set [2] was 1136 mg/mL (≈ 876 mM). Moreover, in data set [1] (general description), the “ability to solubilize sparingly soluble compounds by inclusion, vs parent cyclodextrins” value is “increased ability to solubilize”. Also, the hydrolysis by invertase entry in the data set on invertase [3] is listed as “unaffected by invertase”. Also, the inhibition of invertase entry in the data set with invertase [4] is listed as “demonstrated inhibition of invertase”.

In turn, `OC[C@H]1O[C@@](CO)(OC[C@H]2O[C@@H]3O[C@H]4[C@H](O)[C@@H](O)[C@@H](O[C@H]5[C@H](O)[C@@H](O)[C@@H](O[C@H]6[C@H](O)[C@@H](O)[C@@H](O[C@H]7[C@H](O)[C@@H](O)[C@@H](O[C@H]8[C@H](O)[C@@H](O)[C@@H](O[C@H]2[C@H](O)[C@H]3O)O[C@@H]8CO)O[C@@H]7CO)O[C@@H]6CO)O[C@@H]5CO)O[C@@H]4CO)[C@@H](O)[C@@H]1O` [compound 4, 6-O-(β-D-fructofuranosyl) cyclohexaamylose] came in with a Solubility in water in data set [2] of 1054 mg/mL (≈ 929 mM). The hydrolysis by invertase result in the data set on invertase [3] is reported as “unaffected by invertase”. Moreover, the inhibition of invertase entry with invertase [4] is listed as “to a much greater extent, 4 demonstrated inhibition of invertase”. For the same compound, in the data set with invertase [4] (hydrolysis of sucrose by invertase, detailed kinetic study still required), the “type of invertase inhibition” value is “appears to be a non-reversible inhibitor”.

Turning to `OC[C@H]1O[C@@](CO)(O[C@H]2O[C@H](CO)[C@@H](O)[C@H](O)[C@H]2O)[C@@H](O)[C@@H]1O` [sucrose, reference compound], the hydrolysis by invertase entry in the data set on invertase [3] is listed as “complete hydrolysis”.

`OC[C@H]1O[C@@H]2O[C@H]3[C@H](O)[C@@H](O)[C@@H](O[C@H]4[C@H](O)[C@@H](O)[C@@H](O[C@H]5[C@H](O)[C@@H](O)[C@@H](O[C@H]6[C@H](O)[C@@H](O)[C@@H](O[C@H]7[C@H](O)[C@@H](O)[C@@H](O[C@H]1[C@H](O)[C@H]2O)O[C@@H]7CO)O[C@@H]6CO)O[C@@H]5CO)O[C@@H]4CO)O[C@@H]3CO` [α-CD, cyclohexaamylose, reference compound]: the Solubility in water in data set [2] is recorded as 126 mg/mL (≈ 130 mM).

`OC[C@H]1O[C@@H]2O[C@H]3[C@H](O)[C@@H](O)[C@@H](O[C@H]4[C@H](O)[C@@H](O)[C@@H](O[C@H]5[C@H](O)[C@@H](O)[C@@H](O[C@H]6[C@H](O)[C@@H](O)[C@@H](O[C@H]7[C@H](O)[C@@H](O)[C@@H](O[C@H]8[C@H](O)[C@@H](O)[C@@H](O[C@H]1[C@H](O)[C@H]2O)O[C@@H]8CO)O[C@@H]7CO)O[C@@H]6CO)O[C@@H]5CO)O[C@@H]4CO)O[C@@H]3CO` [β-CD, cycloheptaamylose, reference compound] registered a Solubility in water in data set [2] of 20 mg/mL (≈ 17.6 mM).
